In article PMC3119659, “Ligand Activation of the Prokaryotic Pentameric Ligand-Gated Ion Channel ELIC” (PLoS Biology, 2011):
Read-outs that look alike come from different tables or passages of the source.

Molecular target: T1, ELIC (Dickeya chrysanthemi, UniProt P0C7B7)
T1 construct: expressed in transfected cells; host or cells: Xenopus laevis oocytes (cRNA injection, pTLN vector)
Assay: cell-based
Type: cell-based, Erwinia chrysanthemi
Settings: for n (Hill coefficient) / EC50: WT; for EC50: read-out: EC50 of activation of ELIC
Text: To identify ligands that activate ELIC we have expressed the protein in Xenopus laevis oocytes and investigated the response to potential agonists by the two-electrode voltage-clamp technique. Based on the volume and chemical properties of the proposed ligand binding region and the presence of positively charged ions bound to this site, we reasoned that parts of the agonists might have a cationic character. […] Our library included different natural products such as amino acids and their derivatives, metabolites, and related synthetic substances (Figure S3A).
Constructs containing the gene of either the WT channel or point mutants preceded by the signal sequence of the chicken α7nAchR were cloned into the pTLN vector for expression in X. laevis oocytes. After linearization of the plasmid DNA by MluI, capped complementary RNA was transcribed with the mMessage mMachine kit (Ambion) and purified with the RNeasy kit (Qiagen). For expression, 1–50 ng of RNA was injected into defolliculated oocytes. Two-electrode voltage clamp measurements were performed one day after injection at 20°C (OC-725B, Warner Instrument Corp.). […] Cysteamine containing solutions were supplemented with 1 mM DTT.

[1] = pH 7.0, two-electrode voltage clamp, -60 mV, fit to Hill equation
[2] = ligand added to the extracellular solution, 10 mM, -60 mV, compared with 2 mM cysteamine
[3] = pH 7.0, averages and s.d. of six measurements

T1 sequence (P0C7B7 whole entry): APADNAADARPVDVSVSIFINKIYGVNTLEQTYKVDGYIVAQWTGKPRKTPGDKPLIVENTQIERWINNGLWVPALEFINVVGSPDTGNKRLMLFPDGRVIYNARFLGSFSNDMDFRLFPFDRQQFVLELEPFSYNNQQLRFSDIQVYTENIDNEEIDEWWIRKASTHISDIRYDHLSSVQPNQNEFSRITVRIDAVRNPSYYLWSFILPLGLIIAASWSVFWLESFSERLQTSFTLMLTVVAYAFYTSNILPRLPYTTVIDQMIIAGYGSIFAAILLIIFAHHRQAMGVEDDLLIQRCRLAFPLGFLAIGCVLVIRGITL

Row | Structure (SMILES) | n (Hill coefficient) (pH 7.0) | EC50 [1] | activating current response of ELIC to the ligand [2] | Imax/Imax cysteamine [3] | other results
1 | NCCCCO | 2.9 | 1700 µM | strong activation | 0.98±0.03 | 
2 | NCCN |  |  | activate ELIC |  | n (Hill coefficient) (pH 8.0): 3.2; EC50 (pH 8.0, two-electrode voltage clamp, -60 mV): 2000 µM; activating current response of ELIC to the ligand (ligand added to the extracellular solution, 10 mM, -60 mV, compared with 2 mM cysteamine, listed as aminoethane): already active at neutral conditions; Imax/Imax cysteamine (pH 9.0, averages and s.d. of six measurements): 1.07±0.06
3 | CCN [Ethylamine] |  |  | activate the channel |  | 
4 | NCCCC(=O)O [GABA] | 3.9 | 2400 µM | activating response at low mM concentrations | 0.79±0.09 | 
5 | CC(=O)OCC[N+](C)(C)C [acetylcholine] |  |  | ineffective |  | 
6 | CCCN [aminopropane] | 3.0 | 446 µM | activate the channel | 0.99±0.02 | 
7 | NCCC(=O)O [beta-alanine] |  |  |  |  | activating current response of ELIC to the ligand: absent
8 | NCCBr [bromoethylamine] | 3.1 | 885 µM | opening the channel | 0.94±0.04 | 
9 | NCCCBr [bromopropylamine] | 3.9 | 1100 µM | opening the channel | 0.71±0.03 | 
